Common to all, as to assay type: in vivo
In assay [1] the test system is Amaranthus retroflexus (AMARE). Put plainly: Herbicidal post-emergence action, section B (Table B11). Conditions: Amaranthus retroflexus, post-emergence, 504 h; application rate 1280 g/ha; visual rating about 3 weeks after treatment vs untreated controls; read-out: post-emergence activity against AMARE in %. The method, then: (§1) Seeds of mono- and dicotyledonous weed plants were placed in plastic pots in sandy loam soil (doubly sown with in each case one species of mono- or dicotyledonous weed plants per pot), covered with soil and cultivated in a greenhouse under controlled growth conditions. 2 to 3 weeks after sowing, the test plants were treated at the one-leaf stage. The compounds of the invention, formulated in the form of wettable powders (WP) or as emulsion concentrates (EC), were applied onto the green parts of the plants as aqueous suspension or emulsion with addition of 0.5% additive at a water application rate of 600 liters per hectare (converted). After the test plants had been kept in the greenhouse under optimum growth conditions for about 3 weeks, the activity of the preparations was rated visually in comparison to untreated controls. For example, 100% activity=the plants have died, 0% activity=like control plants.

Assay [2] relates to Veronica persica (VERPE). Description: Herbicidal pre-emergence action, section A (Table A10). The text has this:
(§2) Seeds of mono- and dicotyledonous weed plants were sown in plastic pots (double sowings with one species of mono- and one species of dicotyledonous weed plants per pot), in sandy loam, and covered with soil. The compounds according to the invention, formulated in the form of wettable powders (WP) or as emulsifiable concentrates (EC), were applied to the surface of the covering soil as aqueous suspension or emulsion, with the addition of 0.5% of an additive, at an application rate of 600 l of water per hectare (converted). Following treatment, the pots were placed in a greenhouse and kept under optimum growth conditions for the test plants. The visual grading of the damage to the test plants was carried out after ca. 3 weeks in comparison to untreated controls (herbicidal effect in percent (%): 100% effect=plants have died off, 0% effect=as control plants).

In assay [3] the test system is Amaranthus retroflexus (AMARE). Description: Herbicidal pre-emergence action, section A (Table A11). Conditions: for pest or weed control at 320 g/ha: Amaranthus retroflexus, 504 h, application rate 320 g/ha, read-out: pre-emergence activity against AMARE in %; for pre-emergence activity against AMARE in %: application rate 1280 g/ha.
From the text: as §2

For assay [4], the system named is Digitaria sanguinalis (DIGSA). Put plainly: Herbicidal pre-emergence action, section A (Table A12).
From the text: as §2

Assay [5] concerns Matricaria inodora (MATIN). Put plainly: Herbicidal pre-emergence action, section A (Table A6). The conditions noted are these: application rate 1280 g/ha, visual grading after ca. 3 weeks vs untreated controls.
From the text: as §2

Assay [6] relates to Echinochloa crus-galli (ECHCG). Put plainly: Herbicidal pre-emergence action, section A (Table A3). Conditions: visual grading after ca. 3 weeks vs untreated controls.
From the text: as §2

The next assay relates to Lolium rigidum (LOLRI). Put plainly: Herbicidal pre-emergence action, section A (Table A5). The conditions noted are these: application rate 1280 g/ha, visual grading after ca. 3 weeks vs untreated controls; for pest or weed control at 1280 g/ha: Lolium rigidum, pre-emergence, 504 h, read-out: pre-emergence activity against LOLRI in %.
From the text: as §2

The next assay has as its system Poa annua (POAAN). Put plainly: Herbicidal pre-emergence action, section A (Table A7). Conditions: visual grading after ca. 3 weeks vs untreated controls; for pest or weed control at 320 g/ha: Poa annua, pre-emergence, 504 h, read-out: pre-emergence activity against POAAN in %.
From the text: as §2

The subject of assay [7] is Kochia scoparia (KCHSC). Description: Herbicidal pre-emergence action, section A (Table A4). The conditions noted are these: application rate 320 g/ha, visual grading after ca. 3 weeks vs untreated controls.
From the text: as §2

In assay [8] the test system is Stellaria media (STEME). Put plainly: Herbicidal post-emergence action, section B (Table B9). Conditions: application rate 1280 g/ha, visual rating about 3 weeks after treatment vs untreated controls. Here is the method: as §1
The test system of assay [9] is Stellaria media (STEME). Put plainly: Herbicidal pre-emergence action, section A (Table A9). Conditions: for pest or weed control at 1280 g/ha: Stellaria media, 504 h, read-out: pre-emergence activity against STEME in %.
From the text: as §2

Assay [10] concerns Setaria viridis (SETVI). Put plainly: Herbicidal post-emergence action, section B (Table B8). The conditions noted are these: Setaria viridis, post-emergence, 504 h; application rate 1280 g/ha; visual rating about 3 weeks after treatment vs untreated controls; read-out: post-emergence activity against SETVI in %. The method, then: as §1
Assay [11] deals with Setaria viridis (SETVI). Description: Herbicidal pre-emergence action, section A (Table A8). Conditions: for pest or weed control at 320 g/ha: Setaria viridis, 504 h, application rate 320 g/ha, read-out: pre-emergence activity against SETVI in %; for pre-emergence activity against SETVI in %: application rate 1280 g/ha.
From the text: as §2

Assay [12] deals with Echinochloa crus-galli (ECHCG). Put plainly: Herbicidal post-emergence action, section B (Table B3). Conditions: rated visually after about 3 weeks. The method, then: as §1
In assay [13] the test system is Alopecurus myosuroides (ALOMY). Description: Herbicidal pre-emergence action, section A (Table A2). Conditions: application rate 1280 g/ha; visual grading after ca. 3 weeks vs untreated controls.
From the text: as §2

Assay [14] relates to Veronica persica (VERPE). Put plainly: Herbicidal post-emergence action, section B (Table B10). The conditions noted are these: Veronica persica, post-emergence, 504 h; application rate 1280 g/ha; visual rating about 3 weeks after treatment vs untreated controls; read-out: post-emergence activity against VERPE in %. Here is the method:
as §1

For assay [15], the system named is Kochia scoparia (KCHSC). Description: Herbicidal post-emergence action, section B (Table B4). Conditions: Bassia scoparia, post-emergence, 504 h; application rate 1280 g/ha; visual rating about 3 weeks after treatment vs untreated controls; read-out: post-emergence activity against KCHSC in %. Here is the method: as §1

The values that follow come from patent publication US20240381872A1, “SUBSTITUTED 2,3-DIHYDRO[1,3]THIAZOLO[4,5-B]PYRIDINES, SALTS THEREOF AND THEIR USE AS HERBICIDALLY ACTIVE SUBSTANCES” (BAYER AKTIENGESELLSCHAFT, priority 2021, published 2024).

Each structure is given as a SMILES string.

For `Cc1cc2c(nc1-c1cccc(F)c1F)N(S(C)(=O)=O)CS2` [Example I-147, 5-(2,3-difluorophenyl)-6-methyl-3-(methylsulfonyl)-2,3-dihydro[1,3]thiazolo[4,5-b]pyridine], the pest or weed control at 1280 g/ha amounted to 90% in assay [1]; 90% in [5] (Tripleurospermum inodorum, pre-emergence, 504 h, read-out: pre-emergence activity against MATIN in %); 90% in the assay on Lolium rigidum (LOLRI); 90% in the assay on Stellaria media (STEME) [8] (Stellaria media, post-emergence, 504 h, read-out: post-emergence activity against STEME in %); 90% in the assay with Stellaria media (STEME) [9] (application rate 1280 g/ha); 90% in the assay with Setaria viridis (SETVI) [10]. Besides, the pest or weed control at 320 g/ha in the assay on Veronica persica (VERPE) [2] (Veronica persica, 504 h, application rate 320 g/ha, read-out: pre-emergence activity against VERPE in %) turned out to be 90%; in assay [3] it was 90%; in assay [4] (Digitaria sanguinalis, 504 h, application rate 320 g/ha, read-out: pre-emergence activity against DIGSA in %), 90%; in assay [6] (Echinochloa crus-galli, pre-emergence, 504 h, application rate 320 g/ha, read-out: pre-emergence activity against ECHCG in %), 100%; in the assay with Poa annua (POAAN) (application rate 320 g/ha) it was 100%; with Kochia scoparia (KCHSC) [7] (Bassia scoparia, pre-emergence, 504 h, read-out: pre-emergence activity against KCHSC in %) it was 90%. Moreover, the pest or weed control at 320 g/ha with Setaria viridis (SETVI) [11] amounted to 100%.

On to `CCCS(=O)(=O)N1CSc2cc(C)c(-c3cccc(F)c3F)nc21` [Example I-145], for which the “pre-emergence activity against VERPE in %” value in the assay with Veronica persica (VERPE) [2] (application rate 1280 g/ha) came to 90%. Moreover, in assay [3], the “pre-emergence activity against AMARE in %” value was found to be 90%. Moreover, the “pre-emergence activity against DIGSA in %” value in assay [4] (application rate 1280 g/ha) was found to be 100%. For the same compound, in [5], the “pre-emergence activity against MATIN in %” value stood at 90%. For the same compound, the “pre-emergence activity against ECHCG in %” value in assay [6] (application rate 1280 g/ha) was 100%. For the same compound, the “post-emergence activity against ECHCG in %” value in assay [12] (application rate 1280 g/ha) stood at 90%. Further, the “pre-emergence activity against LOLRI in %” value with Lolium rigidum (LOLRI) worked out at 100%. For the same compound, the “pre-emergence activity against POAAN in %” value with Poa annua (POAAN) (application rate 320 g/ha) is on record as 100%. Moreover, the “pre-emergence activity against KCHSC in %” value in the assay on Kochia scoparia (KCHSC) [7] is on record as 90%. In [13], the “pre-emergence activity against ALOMY in %” value is listed as 90%. Besides, the “post-emergence activity against STEME in %” value in the assay with Stellaria media (STEME) [8] amounted to 90%. For the same compound, the “pre-emergence activity against STEME in %” value in the assay with Stellaria media (STEME) [9] (application rate 320 g/ha) was 90%. Further, the “pre-emergence activity against SETVI in %” value in the assay on Setaria viridis (SETVI) [11] is listed as 100%.

Regarding `Cc1ccccc1-c1nc2c(cc1C)[S+]([O-])CN2C(=O)C1CC1` (stereo not drawn) [Example I-063], the pest or weed control at 1280 g/ha in the assay on Veronica persica (VERPE) [2] (Veronica persica, 504 h, application rate 1280 g/ha, read-out: pre-emergence activity against VERPE in %) came to 90%; in assay [4] (Digitaria sanguinalis, 504 h, application rate 1280 g/ha, read-out: pre-emergence activity against DIGSA in %) it was 100%; in assay [6] (Echinochloa crus-galli, pre-emergence, 504 h, application rate 1280 g/ha, read-out: pre-emergence activity against ECHCG in %), 100%; in the assay with Lolium rigidum (LOLRI) it was 100%; in the assay on Veronica persica (VERPE) [14], 90%; with Stellaria media (STEME) [9] (application rate 1280 g/ha), 90%. The pest or weed control at 1280 g/ha in the assay on Kochia scoparia (KCHSC) [15] stood at 90%. In addition, the pest or weed control at 320 g/ha was determined as 90% in assay [3], 100% in the assay with Poa annua (POAAN) (application rate 320 g/ha) and 100% with Setaria viridis (SETVI) [11].

On to `CCCS(=O)(=O)N1CSc2cc(C)c(-c3cccc(Cl)c3F)nc21` [Example I-112], for which, in the assay with Veronica persica (VERPE) [2] (application rate 1280 g/ha), the “pre-emergence activity against VERPE in %” value came to 90%. The “pre-emergence activity against AMARE in %” value in assay [3] was 90%. In addition, in [12] (application rate 320 g/ha), the “post-emergence activity against ECHCG in %” value is 100%. In the assay with Poa annua (POAAN) (application rate 1280 g/ha), the “pre-emergence activity against POAAN in %” value stood at 100%. Besides, in the assay with Stellaria media (STEME) [9] (application rate 1280 g/ha), the “pre-emergence activity against STEME in %” value is on record as 90%. The “pre-emergence activity against SETVI in %” value in the assay with Setaria viridis (SETVI) [11] came out at 90%.
